Values of other authors as cited in patent US20080153925A1, “Use of Amphiphilic Copolymers as Solubilising Agents” (BASF Aktiengesellschaft, priority 2004, published 2008).
Converted amounts (≈) assume the structure as drawn.

Conditions: literature values

Structure (SMILES)	Solubility in water (without copolymer)
Nc1ccc(S(=O)(=O)Nc2nccs2)cc1 [Sulfathiazole]	445 µg/mL (≈ 1740 µM)
CCCCC(CC)COC(=O)c1ccc(Nc2nc(Nc3ccc(C(=O)OCC(CC)CCCC)cc3)nc(Nc3ccc(C(=O)OCC(CC)CCCC)cc3)n2)cc1 (centres unmarked) [Uvinul ® T150, tris(2-ethylhexyl) 4,4′,4″-(1,3,5-triazine-2,4,6-triyltriimino)trisbenzoate]	0.007 µg/mL (≈ 0.0085 µM)
